Measured values reported in patent EP1001769B1, “SOLUBLE PRODRUGS OF PACLITAXEL” (BAKER NORTON PHARMACEUTICALS, INC., priority 1997, dated 1998).
Counter-ions that a name gives are not always drawn.

Assays:
Assay type in all cases: physicochemical
[1] = Solubility in deionized water; conditions: 0.97 and 0.80 mg in 0.5 ml deionized water, sonicated about 1 minute; 1.54 mg sample needed additional 0.1 ml; upper limit not attained
Experimental: Solubility: Deionized water (0.5 ml) was added to three samples of the 2'-MPM (1.54 mg, 0.97 mg and 0.80 mg) and the flask sonicated for approximately one (1) minute.

[2] = Extraction from water into CH2Cl2; conditions: about 1 mg in 1 ml water stirred with 1 ml CH2Cl2; residue of organic phase weighed
Experimental: Extraction: Three samples (1.2, 1.0 and 0.98 mg) were dissolved in water (1 ml) and vigorously stirred with CH2Cl2 (1 ml). The organic phase was transferred to a clean, tared vial and concentrated in vacuo. The residue was weighed and compared to the theoretical input to gauge the effectiveness of the extraction procedure. Average return for this extraction was about 44% of theoretical.

[3] = Aqueous stability of the prodrug in H2O and 0.2M NaCl
Experimental: Aqueous Stability: The stability of the prodrug in H2O and 0.2M NaCI was examined at both room temperature and under refrigerated conditions. Samples in H2O (0.54 mg in 2 ml) and NaCI (0.57 mg in 2 ml) at room temperature were examined at two minute time intervals (0 through 12 minutes), 2 hours and 24 hours. […] At 4°C the product concentration was unchanged at 24 and 48 hours but decreased to 90% after 72 hours. […] At 4°C the product concentration was unchanged at 24 hours, was 91% at 48 hours and was 88% at 72 hours.

[4] = Stability of paclitaxel-2'-MPA solution in water/polyethylene glycol, analysed by HPLC; conditions: freshly prepared solution 0.53 mg/ml in CH3CN, HPLC trace
[5] = as above
Experimental: The onium salt paclitaxel-2'-MPA was prepared by the method of Nicolaou et al., Angew. Chim. Int. Engl., 33:1583-1587 ([…]). A 2.40 mg/ml solution of the paclitaxel-2'-MPA was prepared by dissolving the salt (10.2 mg) in a solution of water (3.024 ml) and polyethylene glycol (1.234 ml). Samples of this solution were frozen. The frozen samples were slowly warmed to room temperature and homogenized with CH3CN (50 µl). An aliquot (50 µl) was removed and diluted to a final volume of 200 µl with deionized H2O and analyzed via HPLC (20 µl injection).

[6] = freshly prepared solution 0.53 mg/ml in CH3CN, HPLC trace

CC(=O)O[C@H]1C(=O)[C@@]2(C)[C@H]([C@H](OC(=O)c3ccccc3)[C@]3(O)C[C@H](OC(=O)[C@H](Oc4cccc[n+]4C)[C@@H](NC(=O)c4ccccc4)c4ccccc4)C(C)=C1C3(C)C)[C@]1(OC(C)=O)CO[C@@H]1C[C@@H]2O [Paclitaxel 2'-MPM, Paclitaxel-2'-Methylpyridinium Mesylate]
Solubility [1]: Solution was attained
Average return for this extraction [2]: about 44 % of theoretical
product concentration ([3]; H2O, 4°C, 24 hours): unchanged
product concentration ([3]; H2O, 4°C, 48 hours): unchanged
product concentration ([3]; H2O, 4°C, 72 hours): 90%
product concentration ([3]; H2O, room temperature, 2 hours): relatively unchanged
product concentration ([3]; H2O, room temperature, 24 hours): 56%
stability in aqueous solution ([3]; aqueous solution, 4°C, 24 hours (summary of Example 2)): unchanged
stability in aqueous solution, degraded to ([3]; aqueous solution, 4°C, 72 hours (summary of Example 2)): 88-91%
product concentration ([3]; saline solution (0.2M NaCl), 4°C, 24 hours): unchanged
product concentration ([3]; saline solution (0.2M NaCl), 4°C, 48 hours): 91%
product concentration ([3]; saline solution (0.2M NaCl), 4°C, 72 hours): 88%
drop of product concentration ([3]; saline solution (0.2M NaCl), room temperature, 2 hours): 1-2%
product concentration ([3]; saline solution (0.2M NaCl), room temperature, 24 hours): 70%
product concentration ([3]; saline solution (0.2M NaCl), room temperature, first ten minutes): no apparent change

CC(=O)O[C@H]1C(=O)[C@@]2(C)[C@H]([C@H](OC(=O)c3ccccc3)[C@]3(O)C[C@H](OC(=O)[C@H](Oc4cccc[n+]4C)[C@@H](NC(=O)c4ccccc4)c4ccccc4)C(C)=C1C3(C)C)[C@]1(OC(C)=O)CO[C@@H]1C[C@@H]2O [2'-MPA, Paclitaxel 2'-Methylpyridinium Acetate]
Paclitaxel peak [4]: 15%
2'-MPA % ([5]; 4°C, 1 Hour): 85%
Paclita. % ([5]; 4°C, 1 Hour): 15%
2'-MPA % ([5]; 4°C, 2 Weeks): 79%
Paclita. % ([5]; 4°C, 2 Weeks): 9%
Unkno. % ([5]; 4°C, 2 Weeks): 10%
2'-MPA % ([5]; 4°C, 6 Hours): 75%
Paclita. % ([5]; 4°C, 6 Hours): 11%
Unkno. % ([5]; 4°C, 6 Hours): 14%
2'-MPA % ([5]; 4°C, 18 Hours): 73%
Paclita. % ([5]; 4°C, 18 Hours): 10%
Unkno. % ([5]; 4°C, 18 Hours): 17%
2'-MPA % ([5]; 4°C, 18 Hours, listed as MPA salt): 73%
2'-MPA % ([5]; 4°C, 42 Hours): 79%
Paclita. % ([5]; 4°C, 42 Hours): 9%
Unkno. % ([5]; 4°C, 42 Hours): 12%
2'-MPA % ([5]; 4°C, 66 Hours): 73%
Paclita. % ([5]; 4°C, 66 Hours): 11%
Unkno. % ([5]; 4°C, 66 Hours): 16%
2'-MPA % ([5]; Room Temperature, 1 Hour): 78%
Paclita. % ([5]; Room Temperature, 1 Hour): 14%
Unkno. % ([5]; Room Temperature, 1 Hour): 8%
2'-MPA % ([5]; Room Temperature, 6 Hours): 78%
Paclita. % ([5]; Room Temperature, 6 Hours): 14%
Unkno. % ([5]; Room Temperature, 6 Hours): 8%
2'-MPA % ([5]; Room Temperature, 18 Hours): 69%
2'-MPA % ([5]; Room Temperature, 42 Hours): 73%
Paclita. % ([5]; Room Temperature, 42 Hours): 17%
Unkno. % ([5]; Room Temperature, 42 Hours): 10%
2'-MPA % ([5]; Room Temperature, 66 Hours): 79%
Paclita. % ([5]; Room Temperature, 66 Hours): 13%
Unkno. % ([5]; Room Temperature, 66 Hours): 8%
2'-MPA % ([5]; Room Temperature, 90 Hours): 73%
Paclita. % ([5]; Room Temperature, 90 Hours): 15%
Unkno. % ([5]; Room Temperature, 90 Hours): 12%
2'-MPA peak [5, 6]: 75%
Unknown peak [5, 6]: 10%
